Measurements as given in PubChem BioAssay AID1963866 (Molecular Pharmacology Branch, DTP, NCI, 2024).

System: PDC KRAS tumor spheroids with HUVEC/MSC, viability
Assay: Anticancer human tumor 349418-098-R-PDC patient-derived lung adenocarcinoma cell line growth inhibition [KRAS2]
Conditions: for IC50: curve of first compound; for viability, T/C: stronger effect = lower value
In short: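 KRAS-mutant tumor cells were grown as spheroids with HUVEC endothelial cells and human MSCs as stroma. Targeted agents were tested alone and with KRAS pathway inhibitors. Doses started at or near clinical Cmax, or 10 microM, descending half-log.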

[1] = second compound 0.1 µM, first compound 0.01 µM
[2] = second compound 0.1 µM, first compound 0.0316 µM
[3] = second compound 0.1 µM, first compound 0.1 µM
[4] = second compound 0.1 µM, first compound 0.316 µM
[5] = second compound 0.1 µM, first compound 1 µM
[6] = second compound 0.1 µM, first compound 3.16 µM
[7] = second compound 0.316 µM, first compound 0.01 µM
[8] = second compound 0.316 µM, first compound 0.0316 µM
[9] = second compound 0.316 µM, first compound 0.1 µM
[10] = second compound 0.316 µM, first compound 0.316 µM
[11] = second compound 0.316 µM, first compound 1 µM
[12] = second compound 0.316 µM, first compound 3.16 µM
[13] = second compound 1 µM, first compound 0.01 µM
[14] = second compound 1 µM, first compound 0.0316 µM
[15] = second compound 1 µM, first compound 0.1 µM
[16] = second compound 1 µM, first compound 0.316 µM
[17] = second compound 1 µM, first compound 1 µM
[18] = second compound 1 µM, first compound 3.16 µM
[19] = second compound 3.16 µM, first compound 0.01 µM
[20] = second compound 3.16 µM, first compound 0.0316 µM
[21] = second compound 3.16 µM, first compound 0.1 µM
[22] = second compound 3.16 µM, first compound 0.316 µM
[23] = second compound 3.16 µM, first compound 1 µM
[24] = second compound 3.16 µM, first compound 3.16 µM
[25] = second compound 10 µM, first compound 0.01 µM
[26] = second compound 10 µM, first compound 0.0316 µM
[27] = second compound 10 µM, first compound 0.1 µM
[28] = second compound 10 µM, first compound 0.316 µM
[29] = second compound 10 µM, first compound 1 µM
[30] = second compound 10 µM, first compound 3.16 µM
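Also: spheroids exposed to compounds for seven days before readout.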

**Q.** How did the IC50 (second compound 0.1 µM) turn out when `CC(=O)OC12COC1CC(O)C1(C)C(=O)C(O)C3=C(C)C(OC(=O)C(O)C(NC(=O)OC(C)(C)C)c4ccccc4)CC(O)(C(OC(=O)c4ccccc4)C21)C3(C)C` (stereo not given) + CC1OCC2(CCN(c3cnc(Sc4ccnc(N)c4Cl)c(N)n3)CC2)C1N was run?
**A.** Its IC50 is < 10 nM.

**Q.** What about the IC50 (second compound 0.316 µM) of the same compound?
**A.** The IC50 was < 10 nM.

**Q.** And the IC50 (second compound 1 µM)?
**A.** Its IC50 is < 10 nM.

**Q.** And the IC50 (second compound 3.16 µM)?
**A.** Its IC50 is < 10 nM.

**Q.** And the IC50 (second compound 10 µM)?
**A.** The IC50 was < 10 nM.

**Q.** And the viability, T/C [1]?
**A.** The viability, T/C was 18%.

**Q.** What about the viability, T/C [2] of the same compound?
**A.** Its viability, T/C is 28.1%.

**Q.** And the viability, T/C [3]?
**A.** Its viability, T/C is 21.9%.

**Q.** What about the viability, T/C [4] of the same compound?
**A.** The viability, T/C was 27.2%.

**Q.** What about the viability, T/C [5] of the same compound?
**A.** Its viability, T/C is 28.7%.

**Q.** What about the viability, T/C [6] of the same compound?
**A.** The viability, T/C was 36.1%.

**Q.** And the viability, T/C [7]?
**A.** The viability, T/C was 21.6%.

**Q.** And the viability, T/C [8]?
**A.** Its viability, T/C is 22.9%.

**Q.** What about the viability, T/C [9] of the same compound?
**A.** The viability, T/C was 29.1%.

**Q.** What about the viability, T/C [10] of the same compound?
**A.** Its viability, T/C is 27.9%.

**Q.** And the viability, T/C [11]?
**A.** The viability, T/C was 29.7%.

**Q.** What about the viability, T/C [12] of the same compound?
**A.** The viability, T/C was 35.2%.

**Q.** And the viability, T/C [13]?
**A.** The viability, T/C was 22.4%.

**Q.** What about the viability, T/C [14] of the same compound?
**A.** The viability, T/C was 26.9%.

**Q.** What about the viability, T/C [15] of the same compound?
**A.** Its viability, T/C is 27.5%.

**Q.** And the viability, T/C [16]?
**A.** Its viability, T/C is 27.6%.

**Q.** What about the viability, T/C [17] of the same compound?
**A.** The viability, T/C was 33.9%.

**Q.** And the viability, T/C [18]?
**A.** The viability, T/C was 43.5%.

**Q.** And the viability, T/C [19]?
**A.** The viability, T/C was 21.5%.

**Q.** And the viability, T/C [20]?
**A.** Its viability, T/C is 28.4%.

**Q.** And the viability, T/C [21]?
**A.** The viability, T/C was 22.5%.

**Q.** And the viability, T/C [22]?
**A.** The viability, T/C was 25.4%.

**Q.** What about the viability, T/C [23] of the same compound?
**A.** The viability, T/C was 26%.

**Q.** What about the viability, T/C [24] of the same compound?
**A.** The viability, T/C was 28.3%.

**Q.** What about the viability, T/C [25] of the same compound?
**A.** Its viability, T/C is 19.9%.

**Q.** What about the viability, T/C [26] of the same compound?
**A.** Its viability, T/C is 24.5%.

**Q.** What about the viability, T/C [27] of the same compound?
**A.** The viability, T/C was 28.3%.

**Q.** What about the viability, T/C [28] of the same compound?
**A.** Its viability, T/C is 24.1%.

**Q.** What about the viability, T/C [29] of the same compound?
**A.** The viability, T/C was 31.7%.

**Q.** And the viability, T/C [30]?
**A.** The viability, T/C was 38.5%.

**Q.** Which results are given for `CN(C)C/C=C/C(=O)Nc1cc2c(Nc3ccc(F)c(Cl)c3)ncnc2cc1O[C@H]1CCOC1` + CC1OCC2(CCN(c3cnc(Sc4ccnc(N)c4Cl)c(N)n3)CC2)C1N?
**A.** IC50 (second compound 0.1 µM): > 100 nM; IC50 (second compound 0.316 µM): > 100 nM; IC50 (second compound 1 µM): > 100 nM; IC50 (second compound 3.16 µM): > 100 nM; IC50 (second compound 10 µM): > 100 nM; viability, T/C (second compound 0.1 µM, first compound 0.000316 µM): 84.1%; viability, T/C (second compound 0.1 µM, first compound 0.001 µM): 95.7%; viability, T/C (second compound 0.1 µM, first compound 0.00316 µM): 105%; viability, T/C [1]: 114%; viability, T/C [2]: 119%; viability, T/C [3]: 103%; viability, T/C (second compound 0.316 µM, first compound 0.000316 µM): 106%; viability, T/C (second compound 0.316 µM, first compound 0.001 µM): 105%; viability, T/C (second compound 0.316 µM, first compound 0.00316 µM): 109%; viability, T/C [7]: 110%; viability, T/C [8]: 117%; viability, T/C [9]: 115%; viability, T/C (second compound 1 µM, first compound 0.000316 µM): 92.3%; viability, T/C (second compound 1 µM, first compound 0.001 µM): 111%; viability, T/C (second compound 1 µM, first compound 0.00316 µM): 97.4%; viability, T/C [13]: 107%; viability, T/C [14]: 116%; viability, T/C [15]: 105%; viability, T/C (second compound 3.16 µM, first compound 0.000316 µM): 99.1%; viability, T/C (second compound 3.16 µM, first compound 0.001 µM): 107%; viability, T/C (second compound 3.16 µM, first compound 0.00316 µM): 105%; viability, T/C [19]: 102%; viability, T/C [20]: 96%; viability, T/C [21]: 88.1%; viability, T/C (second compound 10 µM, first compound 0.000316 µM): 99.2%; viability, T/C (second compound 10 µM, first compound 0.001 µM): 117%; viability, T/C (second compound 10 µM, first compound 0.00316 µM): 108%; viability, T/C [25]: 110%; viability, T/C [26]: 104%; viability, T/C [27]: 95.8%

**Q.** How did the IC50 (second compound 0.1 µM) turn out when `O=C(c1cc(Cc2n[nH]c(=O)c3ccccc23)ccc1F)N1CCN(C(=O)C2CC2)CC1` + CC1OCC2(CCN(c3cnc(Sc4ccnc(N)c4Cl)c(N)n3)CC2)C1N was run?
**A.** The IC50 was 4710 nM.

**Q.** And the IC50 (second compound 0.316 µM)?
**A.** The IC50 was 3270 nM.

**Q.** What about the IC50 (second compound 1 µM) of the same compound?
**A.** Its IC50 is 4240 nM.

**Q.** What about the IC50 (second compound 3.16 µM) of the same compound?
**A.** Its IC50 is 2800 nM.

**Q.** And the IC50 (second compound 10 µM)?
**A.** Its IC50 is 1450 nM.

**Q.** What about the viability, T/C [2] of the same compound?
**A.** The viability, T/C was 95.9%.

**Q.** What about the viability, T/C [3] of the same compound?
**A.** The viability, T/C was 89.7%.

**Q.** And the viability, T/C [4]?
**A.** The viability, T/C was 89%.

**Q.** And the viability, T/C [5]?
**A.** Its viability, T/C is 81.3%.

**Q.** What about the viability, T/C [6] of the same compound?
**A.** The viability, T/C was 63.5%.

**Q.** What about the viability, T/C (second compound 0.1 µM, first compound 10 µM) of the same compound?
**A.** The viability, T/C was 25.3%.

**Q.** What about the viability, T/C [8] of the same compound?
**A.** The viability, T/C was 78.8%.

**Q.** And the viability, T/C [9]?
**A.** The viability, T/C was 82.6%.

**Q.** What about the viability, T/C [10] of the same compound?
**A.** The viability, T/C was 77.3%.

**Q.** What about the viability, T/C [11] of the same compound?
**A.** Its viability, T/C is 78.5%.

**Q.** What about the viability, T/C [12] of the same compound?
**A.** Its viability, T/C is 50.6%.

**Q.** And the viability, T/C (second compound 0.316 µM, first compound 10 µM)?
**A.** The viability, T/C was 29.2%.

**Q.** And the viability, T/C [14]?
**A.** Its viability, T/C is 107%.

**Q.** And the viability, T/C [15]?
**A.** Its viability, T/C is 97.3%.

**Q.** And the viability, T/C [16]?
**A.** Its viability, T/C is 81.8%.

**Q.** And the viability, T/C [17]?
**A.** The viability, T/C was 59.9%.

**Q.** What about the viability, T/C [18] of the same compound?
**A.** Its viability, T/C is 66.7%.

**Q.** What about the viability, T/C (second compound 1 µM, first compound 10 µM) of the same compound?
**A.** The viability, T/C was 33%.

**Q.** And the viability, T/C [20]?
**A.** The viability, T/C was 90.8%.

**Q.** What about the viability, T/C [21] of the same compound?
**A.** The viability, T/C was 84%.

**Q.** What about the viability, T/C [22] of the same compound?
**A.** The viability, T/C was 68.6%.

**Q.** What about the viability, T/C [23] of the same compound?
**A.** Its viability, T/C is 70.6%.

**Q.** And the viability, T/C [24]?
**A.** The viability, T/C was 48.3%.

**Q.** What about the viability, T/C (second compound 3.16 µM, first compound 10 µM) of the same compound?
**A.** The viability, T/C was 23.9%.

**Q.** What about the viability, T/C [26] of the same compound?
**A.** Its viability, T/C is 80.9%.

**Q.** And the viability, T/C [27]?
**A.** Its viability, T/C is 72.8%.

**Q.** And the viability, T/C [28]?
**A.** The viability, T/C was 59.2%.

**Q.** What about the viability, T/C [29] of the same compound?
**A.** Its viability, T/C is 56.6%.

**Q.** And the viability, T/C [30]?
**A.** The viability, T/C was 44.1%.

**Q.** And the viability, T/C (second compound 10 µM, first compound 10 µM)?
**A.** The viability, T/C was 29.7%.
